Assay results reported in US9006452B2, “Method for imaging zinc activation within a mitochondrion using a two-photon fluorescent probe, and method for manufacturing the two-photon fluorescent probe” (AJOU University Industry-Academic Cooperation Foundation, priority 2011, dated 2015).

Experiments:
[1] = tested on: HeLa cells; test: Light stability of TPEF intensity in labeled HeLa cells; assay type: cell-based; conditions: exposure 60 min
[2] = Optical and physical properties of the two-photon fluorescent probe in MOPS buffer; assay type: physicochemical; conditions: absence of Zn2+
Method: In order to investigate optical and physical properties of the two-photon fluorescent probe (SZn-Mito), the following experiment was carried out by using a MOPS (3-(N-morpholino)propane sulfonic acid) buffer.
(§1) It was predicted as a result of blocking the photo-induced electron transfer (PeT) process caused by complexation with metal ions.

[3] = One- and two-photon fluorescence titration with free Zn2+ (dissociation constant, fluorescence enhancement factor); assay type: binding
Method: as §1
As a result of measuring a fluorescence increase factor (FEF=(F−Fmin)/Fmin) value of the two-photon fluorescent probe (SZn-Mito) by one- and two-photon processes, the FEF value was represented as 7 in the presence of excessive zinc ions (Table 1).
MOPS (4-morpholinepropanesulfonic acid) buffers (30 mM, pH 7.2, 0.1 M KCl) including varying amounts of ZnSO4 and 10 mM EGTA (ethylene glycol-bis(2-aminoethylether)-N,N,N′,N′-tetraacetic acid) were prepared.
The concentration of free Zn^2+ ([Zn^2+]free) was calculated from KZn-EGTA^app,[EGTA] total, and [Zn^2+]total by using following Equation 1:
After that, the stability constant of a Zn^2+ complex of EGTA (KZn-EGTA) was obtained by a conventional method known in the art. As a result, for EGTA (pH 7.2, 0.1 M KCl, 25[…]), pK1=9.40, pK2=8.79, pK3=2.70, and log KZn-EGTA=12.6 were obtained.
All protonation constants at 0.1 M ion strength workout were corrected upward by 0.11, [EGTA]total was fixed at 10 mM, and [Zn^2+]total was in the range from 0 to 9.5 mM.
In order to clearly determine a dissociation constant of the two-photon fluorescent probe, FIG. 2c as a fluorescence titration curve was obtained from FIG. 2b by using following Equation 2.
wherein F is a fluorescence intensity. Fmax is a maximum fluorescence intensity, Fo is a fluorescence intensity in the absence of Zn^2+, and [Zn^2+]free is a concentration of free Zn^2+.
Kd values that well complies with the titration curve (FIG. 2c) according to Equation 2 were calculated by using a commercial Origin software. […] A two-photon excitation fluorescence titration curve was obtained, which was fitted to Equation 2 (FIGS. 2c and 2d).

[4] = Selectivity for metal cations in MOPS buffer; assay type: physicochemical; conditions: MOPS buffer pH 7.2, 1.0 μM probe
Method: The selectivity for metal cations was determined by using the MOPS buffer (30 mM MOPS, 100 mM KCl, 10 mM EGTA, pH 7.2) including the two-photon fluorescent probe. […] However, because there are very little metal ions such as Co^2+, Ni^2+ and Cu^2+ inside the cells, the two-photon fluorescent probe of the present invention has an advantage that it can detect zinc ions (Zn^2+) without the interference caused by competition with other metal ions.

[5] = Effect of pH on one-photon fluorescence intensity; assay type: physicochemical; conditions: physiological pH; absence and presence of free Zn2+
[6] = tested on: zinc ions within the mitochondria of HeLa cells; test: Two-photon microscopy monitoring of zinc ion changes in living HeLa cells; assay type: cell-based
Method: TPEF images were collected at a range from 425-575 nm (fs pulses, 760 nm excitation conditions);
When DTDP (2,2′-dithiodipyridine; […]), reagent capable of inducing dissociation of Zn^2+ ions from Zn^2+-binding proteins, was added to the HeLa cells labeled with the two-photon fluorescent probe (SZn-Mito), the TPEF intensity was increased. When CCCP (carbonyl cyanide m-chlorophenylhydrazone; […]), a compound capable of disrupting a transmembrane potential difference of the mitochondria and increasing the release of cations within the mitochondria, was added thereto, the TPEF intensity was decreased. Also, when the HeLa cells were treated with […] (2-mercaptopyridine N-oxide), a reagent capable of delivering Zn^2+ to the cytoplasm, the TPEF intensity was increased, and when they were treated with CCCP, the TPEF intensity was decreased (FIG. 1).

[7] = tested on: HeLa cells; test: Toxicity test using a CCK-8 kit; assay type: cell-based
Excerpt: In order to confirm whether the two-photon fluorescent probe of the present invention can detect intracellular zinc ions, the effect of the two-photon fluorescent probe (SZn-Mito) on the cells was examined by the following toxicity test.

CN(CC(=O)NCC[P+](c1ccccc1)(c1ccccc1)c1ccccc1)c1ccc2cc(-c3nc4ccc(NCCN(Cc5ccccn5)Cc5ccccn5)cc4s3)ccc2c1 [SZn-Mito]
change of TPEF intensity under continuous fs-pulse radiation (light stability) [1]: not decreased at all | λmax(1), one-photon absorption spectra ([2]; 30 mM MOPS, 100 mM KCl, 10 mM EGTA, pH 7.2): 388 nm | λmax fl, one-photon emission spectra ([2]; MOPS buffer pH 7.2): 500 nm | 10^−4 ε, molar excitation coefficient ([2]; MOPS buffer pH 7.2, value is 10^−4 ε): 1.87 M^−1cm^−1 | F, fluorescence quantum yield ([2]; MOPS buffer pH 7.2, ±15%): 0.15 | detection limit for Zn2+ ([3]; from fluorescence titration): nM range | FEF, fluorescence enhancement factor (F−Fmin)/Fmin, one-photon process ([3]; one-photon, presence of excessive zinc ions): 7 | FEF, fluorescence enhancement factor (F−Fmin)/Fmin, two-photon process ([3]; two-photon, presence of excessive zinc ions): 7 | fluorescence in the presence of Co2+, Ni2+ and Cu2+ [4]: fluorescence was decreased | selectivity for Cd2+ [4]: relatively high selectivity for Cd^2+ | selectivity for Zn2+ compared with Na+, K+, Ca2+, Mg2+, Mn2+, Fe2+ and Fe3+ [4]: higher selectivity for Zn^2+ | reaction to pH (fluorescence intensity) [5]: unreacted at physiological pH | TPEF intensity after treatment with Zn2+ and pyrithione ([6]; HeLa cells, 100 mM Zn2+ and 100 mM pyrithione): increased | TPEF intensity after addition of CCCP ([6]; labeled HeLa cells after DTDP, CCCP 10 mM): decreased | TPEF intensity after addition of DTDP ([6]; labeled HeLa cells, DTDP 150 mM): increased | toxicity to cells (CCK-8 kit) [7]: negligible and extremely low toxicity
